# Experimental data as given in patent US11384063B2, “Modulators of estrogen receptor proteolysis and associated methods of use” (Arvinas Operations, Inc., priority 2017, dated 2022).
# Counter-ions that a name gives are not always drawn.
# Key:
# [1] = molecular target: T1, ERα (Homo sapiens, UniProt P03372); assay: Estrogen receptor-alpha (ERα) degradation assay in MCF7 cells using In-Cell Western assay; assay type: cell-based; parameters: assessed for their activity in degrading ERα in MCF-7 cells via western blot; endogenous in cells; host or cells: MCF7 cells; conditions: ER-alpha degradation in MCF7 cells, 5 days of incubation
# T1 sequence (P03372 1-595): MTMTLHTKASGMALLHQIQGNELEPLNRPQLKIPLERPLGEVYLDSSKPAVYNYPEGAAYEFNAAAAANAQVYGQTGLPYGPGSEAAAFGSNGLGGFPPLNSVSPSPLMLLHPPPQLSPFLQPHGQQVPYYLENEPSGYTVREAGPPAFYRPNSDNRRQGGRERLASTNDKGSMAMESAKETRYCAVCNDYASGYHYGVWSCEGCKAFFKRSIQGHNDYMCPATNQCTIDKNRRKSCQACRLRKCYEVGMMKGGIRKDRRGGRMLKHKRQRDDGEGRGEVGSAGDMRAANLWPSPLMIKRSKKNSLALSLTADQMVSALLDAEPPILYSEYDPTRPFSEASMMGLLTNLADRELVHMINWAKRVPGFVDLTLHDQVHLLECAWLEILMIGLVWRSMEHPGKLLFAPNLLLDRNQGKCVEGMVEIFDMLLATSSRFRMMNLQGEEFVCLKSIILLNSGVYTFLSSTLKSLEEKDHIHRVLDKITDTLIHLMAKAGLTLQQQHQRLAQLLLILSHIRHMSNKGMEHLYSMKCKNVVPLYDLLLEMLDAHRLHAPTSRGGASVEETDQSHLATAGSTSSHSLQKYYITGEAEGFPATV
# Experimental: Estrogen Receptor-Alpha (ERα) Degradation Assay Using in-Cell Western™ Assay for Table 5.
# Degradation of ERα by claimed compounds were determined in MCF7 cells using an In-Cell Western™ assay. Briefly, MCF7 cells were plated in 96-well plates (2000 cells per well in 100 μl media) and incubated at 37° C. under an atmosphere of 5% CO2 in a humidified incubator overnight. One-hundred (100) μI of media containing test compound (at 2x concentration) was added to the appropriate wells to provide 11 serially decreasing concentrations (top final concentration, 1 μM then 3-fold less for the next 10 concentrations); a vehicle control (DMSO) was also added for each compound. For each experiment, all compounds were assayed on duplicate plates. Cells were then incubated for 3 or 5 days in the above-mentioned environment. The assay was terminated by removal of media, a single wash with ice-cold PBS and the addition of 50 μl paraformaldehyde (PFA: 4% in PBS). After 15 minutes in PFA at room temperature, the cells were permeabilized in Tris-phosphate-buffered saline with Tween (0.1%) (TBST) supplemented with Triton X-100 (0.5%) for 15 minutes. Cells were then blocked in BSA (TBST with BSA, 3%) for one hour. Primary antibodies for the detection of ERa (rabbit monoclonal, 1:1000, Cell Signaling Technology Catalog #8644) and tubulin (mouse monoclonal, 1:5000, Sigma Catalog #T6074) in TBST with BSA (3%) were added. The cells were incubated overnight at 4° C. The cells were then washed thrice with TBST at room temperature and then incubated with anti-rabbit and anti-mouse fluorescently-labelled secondary antibodies (IRDye®; LI-COR; Lincoln, Nebr.) in LI-COR blocking buffer (Catalog #927-50000) for one hour at room temperature. Following 3 washes with TBST, the buffer was removed and the plates were read on an Odyssey® infrared imaging system (LI-COR®, Lincoln, Nebr.) at 700 nm and 800 nm. Using commercial software (ImageStudio™; LI-COR, Lincoln, Nebr.), the staining intensity for ERa and tubulin in each well was quantified and exported for analysis. For each data point, ERa intensity was normalized to tubulin intensity and for each compound all normalized intensity values were normalized to the vehicle control. DC50 and Dmax values were determined following a 4-parameter IC50 curve fit using ACAS dose response module (McNeil & Co Inc.).
# [2] = molecular target: T1, ERα; assay: ERE luciferase reporter gene assay in T47D-KBluc cells (target engagement); assay type: cell-based; parameters: T47D human breast cancer cells stably transfected with estrogen responsive element/promoter/luciferase reporter gene; host or cells: T47D-KBluc cells; conditions: 10% FBS, 24 hours, Table 3 cereblon centric PROTACs, read-out: ER-α Luciferase IC50
# Outline: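 T47D-KBluc breast cancer cells, which carry a stable ERE-luciferase reporter, were grown in RPMI with 10% FBS (about 10 pM estrogen) and exposed to PROTACs for 24 h. The 12-point, 3-fold series ran from 300 nM to 2 pM. Luciferase was read after lysis, and IC50 was fitted from duplicates.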
compound,measurement,setting,value
"O=C1CCC(N2C(=O)c3ccc(NCCCN4CCCN(CCOc5ccc(Oc6c(-c7ccc(Br)cc7)sc7cc(O)ccc67)cc5)CC4)cc3C2=O)C(=O)N1 (stereo not drawn) [Compound 178, 5-[3-[4-[2-[4-[2-(4-bromophenyl)-6-hydroxy-benzothiophen-3-yl]oxyphenoxy]ethyl]-1,4-diazepan-1-yl]propylamino]-2-(2,6-dioxo-3-piperidyl)isoindoline-1,3-dione]",DC50,[1],1 to 10 nM
same,Dmax,[1],> 75%
same,IC50,[2],2.4 nM
O=C1CCC(N2Cc3cc(NCCCN4CCN(CCOc5ccc(Oc6c(-c7ccc(C(F)(F)F)cc7)sc7cc(O)ccc67)cc5)CC4)ccc3C2=O)C(=O)N1 (stereo not drawn) [Compound 179],DC50,[1],1 to 10 nM
same,Dmax,[1],50 to 75%
same,IC50,[2],1 nM
"COc1ccc(-c2sc3cc(O)ccc3c2Oc2ccc(OCCN3CCN(CCCNc4ccc5c(c4)CN(C4CCC(=O)NC4=O)C5=O)CC3)cc2)cc1 (stereo not drawn) [Compound 180, 3-[5-[3-[4-[2-[4-[6-hydroxy-2-(4-methoxyphenyl)benzothiophen-3-yl]oxyphenoxy]ethyl]piperazin-1-yl]propylamino]-1-oxo-isoindolin-2-yl]piperidine-2,6-dione]",DC50,[1],< 1 nM
same,Dmax,[1],> 75%
same,IC50,[2],0.22 nM
"COc1ccc2c(Oc3ccc(OCCN4CCN(CCCNc5ccc6c(c5)CN(C5CCC(=O)NC5=O)C6=O)CC4)cc3)c(-c3ccc(O)cc3)sc2c1 (stereo not drawn) [Compound 181, 3-[5-[3-[4-[2-[4-[2-(4-hydroxyphenyl)-6-methoxy-benzothiophen-3-yl]oxyphenoxy]ethyl]piperazin-1-yl]propylamino]-1-oxo-isoindolin-2-yl]piperidine-2,6-dione]",DC50,[1],1 to 10 nM
same,Dmax,[1],50 to 75%
same,IC50,[2],2.2 nM
"O=C1CC[C@H](N2Cc3cc(CCN4CCCN(CCCCOc5ccc(Oc6c(-c7ccc(Br)cc7)sc7cc(O)ccc67)cc5)CC4)ccc3C2=O)C(=O)N1 [Compound 182, (3S)-3-[5-[2-[4-[4-[4-[2-(4-bromophenyl)-6-hydroxy-benzothiophen-3-yl]oxyphenoxy]butyl]-1,4-diazepan-1-yl]ethyl]-1-oxo-isoindolin-2-yl]piperidine-2,6-dione]",DC50,[1],1 to 10 nM
same,Dmax,[1],> 75%
same,IC50,[2],1.9 nM
"O=C1CCC(N2C(=O)c3ccc(N4CCN(C5CCN(CCOc6ccc(Oc7c(-c8ccc(Br)cc8)sc8cc(O)ccc78)cc6)CC5)CC4)cc3C2=O)C(=O)N1 (stereo not drawn) [Compound 183, 5-[4-[1-[2-[4-[2-(4-bromophenyl)-6-hydroxy-benzothiophen-3-yl]oxyphenoxy]ethyl]-4-piperidyl]piperazin-1-yl]-2-(2,6-dioxo-3-piperidyl)isoindoline-1,3-dione]",DC50,[1],10 to 100 nM
same,Dmax,[1],50 to 75%
same,IC50,[2],2.5 nM
"O=C1CCC(N2C(=O)c3ccc(N4CCN(CC5CCN(CCOc6ccc(Oc7c(-c8ccc(Br)cc8)sc8cc(O)ccc78)cc6)CC5)CC4)cc3C2=O)C(=O)N1 (stereo not drawn) [Compound 184, 5-[4-[1-[2-[4-[2-(4-bromophenyl)-6-hydroxy-benzothiophen-3-yl]oxyphenoxy]ethyl]-4-piperidylmethyl]piperazin-1-yl]-2-(2,6-dioxo-3-piperidyl)isoindoline-1,3-dione]",DC50,[1],10 to 100 nM
same,Dmax,[1],> 75%
same,IC50,[2],13.3 nM
"O=C1CCC(N2C(=O)c3ccc(N4CCN(CC5CN(CCOc6ccc(Oc7c(-c8ccc(Br)cc8)sc8cc(O)ccc78)cc6)C5)CC4)cc3C2=O)C(=O)N1 (stereo not drawn) [Compound 185, 5-[4-[[1-[2-[4-[2-(4-bromophenyl)-6-hydroxy-benzothiophen-3-yl]oxyphenoxy]ethyl]azetidin-3-yl]methyl]piperazin-1-yl]-2-(2,6-dioxo-3-piperidyl)isoindoline-1,3-dione]",DC50,[1],1 to 10 nM
same,Dmax,[1],50 to 75%
same,IC50,[2],4.5 nM
"O=C1CCC(N2C(=O)c3ccc(C4CCN(C5CCN(CCOc6ccc(Oc7c(-c8ccc(Br)cc8)sc8cc(O)ccc78)cc6)CC5)CC4)cc3C2=O)C(=O)N1 (stereo not drawn) [Compound 190, 5-(1′-(2-(4-((2-(4-bromophenyl)-6-hydroxybenzo[b]thiophen-3-yl)oxy)phenoxy)ethyl)-[1,4′-bipiperidin]-4-yl)-2-(2,6-dioxopiperidin-3-yl)isoindoline-1,3-dione Hydrochloride]",DC50,[1],1 to 10 nM
same,Dmax,[1],50 to 75%
same,IC50,[2],11.6 nM
"O=C1CCC(N2C(=O)c3ccc(N4CC(CN5CCCN(CCOc6ccc(Oc7c(-c8ccc(Br)cc8)sc8cc(O)ccc78)cc6)CC5)C4)cc3C2=O)C(=O)N1 (stereo not drawn) [Compound 191, 5-(3-((4-(2-(4-((2-(4-bromophenyl)-6-hydroxybenzo[b]thiophen-3-yl)oxy)phenoxy)ethyl)-1,4-diazepan-1-yl)methyl)azetidin-1-yl)-2-(2,6-dioxopiperidin-3-yl)isoindoline-1,3-dione]",DC50,[1],1 to 10 nM
same,Dmax,[1],50 to 75%
same,IC50,[2],1.8 nM
"O=C1CCC(N2Cc3cc(N4CCN(C5CCN(CCOc6ccc(Oc7c(-c8ccc(C(F)(F)F)cc8)sc8cc(O)ccc78)cc6)CC5)CC4)ccc3C2=O)C(=O)N1 (stereo not drawn) [Compound 192, 3-[5-[4-[1-[2-[4-[6-hydroxy-2-[4-(trifluoromethyl)phenyl]benzothiophen-3-yl]oxyphenoxy]ethyl]-4-piperidyl]piperazin-1-yl]-1-oxo-isoindolin-2-yl]piperidine-2,6-dione]",DC50,[1],10 to 100 nM
same,Dmax,[1],> 75%
same,IC50,[2],2.9 nM
"O=C1CCC(N2Cc3c(ccc(N4CCN(C5CCN(CCOc6ccc(Oc7c(-c8ccc(C(F)(F)F)cc8)sc8cc(O)ccc78)cc6)CC5)CC4)c3F)C2=O)C(=O)N1 (stereo not drawn) [Compound 193, 3-[4-fluoro-5-[4-[1-[2-[4-[6-hydroxy-2-[4-(trifluoromethyl)phenyl]benzothiophen-3-yl]oxyphenoxy]ethyl]-4-piperidyl]piperazin-1-yl]-1-oxo-isoindolin-2-yl]piperidine-2,6-dione]",DC50,[1],1 to 10 nM
same,Dmax,[1],> 75%
same,IC50,[2],9.8 nM
"O=C1CCC(N2Cc3cc(N4CCN(C5CCN(CCOc6ccc(Oc7c(-c8ccc(Br)cc8)sc8cc(O)ccc78)cc6)CC5)CC4)ccc3C2=O)C(=O)N1 (stereo not drawn) [Compound 194, 3-[5-[4-[1-[2-[4-[2-(4-bromophenyl)-6-hydroxybenzothiophen-3-yl]oxyphenoxy]ethyl]-4-piperidyl]piperazin-1-yl]-1-oxo-isoindolin-2-yl]piperidine-2,6-dione]",DC50,[1],1 to 10 nM
same,Dmax,[1],> 75%
same,IC50,[2],3.9 nM
"O=C1CCC(N2Cc3cc(CCCCN4CCCN(CCOc5ccc(Oc6c(-c7ccc(Br)cc7)sc7cc(O)ccc67)cc5)CC4)ccc3C2=O)C(=O)N1 (stereo not drawn) [Compound 199, 3-[5-[4-[4-[2-[4-[2-(4-bromophenyl)-6-hydroxybenzothiophen-3-yl]oxyphenoxy]ethyl]-1,4-diazepan-1-yl]butyl]-1-oxo-isoindolin-2-yl]piperidine-2,6-dione]",DC50,[1],1 to 10 nM
same,Dmax,[1],50 to 75%
same,IC50,[2],0.82 nM
"O=C1CCC(N2Cc3c(ccc(N4CCN(CC5CCN(CCOc6ccc(Oc7c(-c8ccc(C(F)(F)F)cc8)sc8cc(O)ccc78)cc6)CC5)CC4)c3F)C2=O)C(=O)N1 (stereo not drawn) [Compound 201, 3-[4-fluoro-5-[4-[[1-[2-[4-[6-hydroxy-2-[4-(trifluoromethyl)phenyl]benzothiophen-3-yl]oxyphenoxy]ethyl]-4-piperidyl]methyl]piperazin-1-yl]-1-oxo-isoindolin-2-yl]piperidine-2,6-dione]",DC50,[1],10 to 100 nM
same,Dmax,[1],> 75%
same,IC50,[2],8.4 nM
